From ChEMBL document CHEMBL5226309, “Synthetic RNA Modulators in Drug Discovery” (J Med Chem, 2021)
Values belong to the compound of their own block, whether it stands above or below them.

Columns and labels:
[1] = system: HEK293; assay: Inhibition of miR-125a in human HEK293 cells relative to control; format: cell-based; details: dose or concentration not given here
[2] = Binding affinity to TAR mRNA assessed as dissociation constant by ITC analysis
[3] = Displacement of Tat from TAR mRNA by FRET analysis
[4] = Inhibition of miR-21 (unknown origin) at 1 uM by differential scanning fluorometry analysis relative to control
[5] = Induction of apoptosis in human U-87 MG cells; format: functional, U-87MG ATCC
[6] = system: HeLa; assay: Induction of apoptosis in human HeLa cells; format: functional
[7] = Downregulation of miR-122 expression in human Huh-7 cells at 10 uM incubated for 48 hrs by RT-PCR analysis relative to control; format: functional
[8] = system: Hepatitis C virus; assay: Antiviral activity against HCV JFH-1 infected in human Huh-7 cells assessed as reduction in viral replication measured after 48 hrs by RT-PCR analysis relative to control; format: functional, Hepacivirus hominis; design: scale not given: the % may be the effect or the level left
[9] = Binding affinity to Precursor microRNA-372 (unknown origin) assessed as dissociation constant
[10] = Inhibition of Precursor microRNA-372 (unknown origin) assessed as inhibition of Dicer-induced pre-miR-372 cleavage
[11] = Binding affinity to miR-18a (unknown orgin) assessed as dissociation constant
[12] = Inhibition of miR-18a (unknown orgin) production
[13] = Binding affinity to miR-21 (unknown origin) at 5 uM by differential scanning fluorometry analysis relative to control
[14] = Binding affinity to miR-21 (unknown origin) assessed as dissociation constant
[15] = Binding affinity to miR-21 (unknown origin) assessed as dissociation constant by fluorescence based analysis
[16] = Binding affinity to HIV-1 mRNA assessed as dissociation constant; design: species or system Human immunodeficiency virus 1
[17] = system: HEK293; assay: Inhibition of miR-125a in human HEK293 cells assessed as increase in mature miR-21 level at 50 uM relative to control; format: cell-based
[18] = system: HEK293; assay: Inhibition of miR-125a in human HEK293 cells assessed as increase in pre miR-21 level at 50 uM relative to control; format: cell-based
[19] = Binding affinity to pre-miR-21 (unknown origin) assessed as dissociation constant by Monolith NT.115 microscale thermophoresis based analysis

SMILES: CCn1cc(C(=O)NC(C)(C)C)c(=O)c2cc(F)c(N3CCNCC3)nc21
inhibition [1]: 20%

SMILES: C#CCNC(=O)c1ccc(NC(=O)c2ccccc2Br)cc1
Activity [5]: 13%
Activity [6]: 24%

SMILES: O=C(Nc1ccc2ccccc2c1)c1ccc(Cl)cc1Cl
Activity [7]: 72%
Activity [8]: 48%

SMILES: NC[C@H]1O[C@H](O[C@H]2[C@H](O)[C@@H](O[C@H]3O[C@H](CNC(=O)CCC(=O)N[C@@H](Cc4ccccc4)C(=O)N[C@@H](CS)C(N)=O)[C@@H](O)[C@H](N)[C@H]3O)[C@H](N)C[C@@H]2N)[C@H](O)[C@@H](O)[C@@H]1O
Activity [13]: 140%
Kd [14]: 0.00436 µM

SMILES: CCn1cc(C(=O)O)c(=O)c2cc(F)c(N3CCNCC3)nc21
inhibition [17]: 150%
inhibition [18]: 100%
inhibition [1]: 100%

SMILES: O=S(=O)(c1ccc2c(c1)CCCN2)N1CCC[C@@H]2CCCC[C@H]21
Activity [7]: 45%
Activity [8]: 47%

Now from value to compound:

Kd [2]: 0.54 µM
DC50 [3]: 1.5 µM
SMILES: CN(C)CCCn1cc(CNC(=O)Cc2csc(NC(=O)Cc3csc(N)n3)n2)nn1

inhibition [4]: 59%
SMILES: COc1ccc(NCC(O)Cn2c3ccc(Br)cc3c3cc(Br)ccc32)cc1 (stereo not given)

Kd [2]: 6.7 µM
DC50 [3]: 10.6 µM
SMILES: CN(C)CCCn1cc(CNC(=O)c2csc(NC(=O)c3csc(NC(=O)c4csc(N)n4)n3)n2)nn1

Kd [9]: 0.15 µM
IC50 [10]: 1.06 µM
SMILES: CNc1ccc(C2c3ccccc3N=C(NCCCNCCCCNCCCN)C2(C)C)cc1 (stereo not given)

Kd [11]: 32 µM
IC50 [12]: 10 µM
SMILES: CN1CCN(c2ccc(-c3ccc4nc(-c5cc(C(C)(C)C)c(OCCCC(=O)NCCCN=[N+]=[N-])c(C(C)(C)C)c5)[nH]c4c3)cc2)CC1

inhibition [4]: 47%
SMILES: Cc1ccccc1NCC(O)Cn1c2ccc(Br)cc2c2cc(Br)ccc21 (stereo not given)

Kd [15]: 0.73 µM
SMILES: CNC(=O)c1cc(Oc2ccc(NC(=O)Nc3ccc(Cl)c(C(F)(F)F)c3)c(F)c2)ccn1 [REGORAFENIB]

Kd [16]: 2.4 µM
SMILES: CC(=O)Nc1nc(-c2cccc(NC(=O)C(CNC(=O)[C@@H](N)CCCNC(=N)N)NC(=O)[C@@H](N)CCCNC(=N)N)c2)cs1 (stereo not given in full)

Kd [19]: 0.98 µM
SMILES: CCCN(CC(=O)N(CCC)CC(=O)N(CCC)CC(=O)N(CC(=O)O)Cc1cn(CCCNC(=O)CCCOc2ccc(-c3nc4ccc(-c5ccc(N6CCN(C)CC6)cc5)cc4[nH]3)cc2)nn1)C(=O)CNCc1cn(CCCNC(=O)CCCOc2ccc(-c3nc4ccc(-c5ccc(N6CCN(C)CC6)cc5)cc4[nH]3)cc2)nn1
